Drawing on ChEMBL document CHEMBL4402597, “Truncated (N)-Methanocarba Nucleosides as Partial Agonists at Mouse and Human A3 Adenosine Receptors: Affinity Enhancement by N6-(2-Phenylethyl) Substitution” (J Med Chem, 2020), this text covers inhibition, Emax and Ki for twelve molecules.

The target of the first experiment is T1, Adenosine receptor A1 (Homo sapiens) (UniProt P30542).
T1 sequence (whole entry): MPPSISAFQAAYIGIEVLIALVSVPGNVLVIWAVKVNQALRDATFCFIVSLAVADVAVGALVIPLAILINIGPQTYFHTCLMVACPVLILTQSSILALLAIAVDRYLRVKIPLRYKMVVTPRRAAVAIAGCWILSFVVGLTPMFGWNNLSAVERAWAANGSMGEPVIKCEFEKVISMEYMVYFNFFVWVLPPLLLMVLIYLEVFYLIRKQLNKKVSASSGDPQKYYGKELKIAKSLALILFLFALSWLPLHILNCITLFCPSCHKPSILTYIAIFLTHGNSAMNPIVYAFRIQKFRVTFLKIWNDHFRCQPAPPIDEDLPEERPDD
The experiment in a line: Displacement of [3H]R-PIA from recombinant human A1AR expressed in HEK293 cell membranes at 10 uM measured after 60 mins by liquid scintillation counting method relative to control. For orientation: Displacement assays read how much labelled ligand stays bound in the presence of the test substance.
The inhibition is the change of the read-out against control, counted positive when it falls. Consider `COc1cc(CCNc2nc(C#Cc3cccc(F)c3)nc3c2ncn3[C@H]2[C@H](O)[C@H](O)[C@@H]3C[C@@H]32)ccc1O`, for which the inhibition was determined as 38%.
On the same count and under the same terms, with `O[C@@H]1[C@H](O)[C@@H]2C[C@@H]2[C@H]1n1cnc2c(NCCc3ccc(F)c(F)c3)nc(C#Cc3ccc(Cl)s3)nc21` the figure was 28%.
Turning to `COc1cc(CCNc2nc(I)nc3c2ncn3[C@H]2[C@H](O)[C@H](O)[C@@H]3C[C@@H]32)ccc1O`, the inhibition stood at 50%.
Same read-out and setting: for `Oc1ccc(CCNc2nc(C#Cc3ccccc3)nc3c2ncn3[C@H]2[C@H](O)[C@H](O)[C@@H]3C[C@@H]32)cc1F` the value was 44%; for `Nc1ccc(CCNc2nc(C#Cc3ccccc3)nc3c2ncn3[C@H]2[C@H](O)[C@H](O)[C@@H]3C[C@@H]32)cc1`, 30%.

The target of another experiment is T2, Adenosine receptor A3 (Mus musculus) (UniProt Q61618).
T2 sequence (whole entry): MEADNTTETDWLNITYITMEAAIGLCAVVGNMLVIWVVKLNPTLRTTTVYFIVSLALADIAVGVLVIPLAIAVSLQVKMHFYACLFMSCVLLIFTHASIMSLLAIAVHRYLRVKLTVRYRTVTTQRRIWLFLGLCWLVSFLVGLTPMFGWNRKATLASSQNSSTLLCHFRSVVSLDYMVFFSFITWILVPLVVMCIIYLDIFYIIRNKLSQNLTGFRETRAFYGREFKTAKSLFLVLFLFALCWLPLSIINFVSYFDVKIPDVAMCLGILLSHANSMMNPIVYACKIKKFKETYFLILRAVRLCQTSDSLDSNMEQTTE
The experiment in a line: Partial agonist activity at recombinant mouse A3AR expressed in HEK293 cell membranes assessed as stimulation of [35S]GTPgammaS binding measured after 2 hrs in presence of A2BAR blocker PSB-603 by liquid scintillation counting analysis relative to adenosine-5'-Nethyluronamide. It counts as functional.
As a reminder, the Emax is the greatest response seen or fitted, relative to the assay's reference. In the case of `CCNC(=O)[C@H]1O[C@@H](n2cnc3c(N)ncnc32)[C@H](O)[C@@H]1O`, the maximal effect (Emax) is 100%.

The target of a further experiment is Adenosine receptor A2a (Homo sapiens, UniProt P29274). The experiment in a line: Displacement of [3H]CGS21680 from recombinant human A2AAR expressed in HEK293 cell membranes at 10 uM measured after 60 mins by liquid scintillation counting method relative to control.
Chain of Adenosine receptor A2a (P29274 whole entry): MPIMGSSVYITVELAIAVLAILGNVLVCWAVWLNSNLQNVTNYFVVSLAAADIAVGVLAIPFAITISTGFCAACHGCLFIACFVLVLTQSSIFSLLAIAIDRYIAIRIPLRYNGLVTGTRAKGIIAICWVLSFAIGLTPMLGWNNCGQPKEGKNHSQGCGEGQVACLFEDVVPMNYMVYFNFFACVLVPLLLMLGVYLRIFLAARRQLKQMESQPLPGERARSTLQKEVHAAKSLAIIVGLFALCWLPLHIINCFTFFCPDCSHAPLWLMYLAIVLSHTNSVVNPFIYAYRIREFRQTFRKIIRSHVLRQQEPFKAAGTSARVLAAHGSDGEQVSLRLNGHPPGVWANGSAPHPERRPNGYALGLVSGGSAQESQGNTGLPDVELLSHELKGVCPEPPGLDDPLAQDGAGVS
As for `O[C@@H]1[C@H](O)[C@@H]2C[C@@H]2[C@H]1n1cnc2c(NCCc3cccc(F)c3)nc(C#Cc3ccccc3)nc21`, the inhibition is 27%.
With `O[C@@H]1[C@H](O)[C@@H]2C[C@@H]2[C@H]1n1cnc2c(NCCc3cccc(F)c3)nc(C#Cc3ccc(F)s3)nc21`, the inhibition amounted to 48%.
On the same count and under the same terms, for `COc1cc(CCNc2nc(C#Cc3ccc(F)c(F)c3)nc3c2ncn3[C@H]2[C@H](O)[C@H](O)[C@@H]3C[C@@H]32)ccc1O` the value was 33%; for `COc1cc(CCNc2nc(C#Cc3ccc(Cl)s3)nc3c2ncn3[C@H]2[C@H](O)[C@H](O)[C@@H]3C[C@@H]32)ccc1O`, 38%; for `COc1ccc(CCNc2nc(C#Cc3ccccc3)nc3c2ncn3[C@H]2[C@H](O)[C@H](O)[C@@H]3C[C@@H]32)cc1OC`, 28%.
The same measure, in the same setting: for `COc1cc(CCNc2nc(C#Cc3cccc(F)c3)nc3c2ncn3[C@H]2[C@H](O)[C@H](O)[C@@H]3C[C@@H]32)ccc1O` the value was 51%.
For `O[C@@H]1[C@H](O)[C@@H]2C[C@@H]2[C@H]1n1cnc2c(NCCc3ccc(F)c(F)c3)nc(C#Cc3ccc(Cl)s3)nc21`, the inhibition was determined as 57%.
On the same count and under the same terms, for `COc1cc(CCNc2nc(I)nc3c2ncn3[C@H]2[C@H](O)[C@H](O)[C@@H]3C[C@@H]32)ccc1O` the value was 49%.
The same measure, in the same setting: with `Oc1ccc(CCNc2nc(C#Cc3ccccc3)nc3c2ncn3[C@H]2[C@H](O)[C@H](O)[C@@H]3C[C@@H]32)cc1F` the figure was 17%; with `Nc1ccc(CCNc2nc(C#Cc3ccccc3)nc3c2ncn3[C@H]2[C@H](O)[C@H](O)[C@@H]3C[C@@H]32)cc1`, 26%.

A further experiment deals with T3, Adenosine receptor A3 (Homo sapiens, UniProt P0DMS8).
T3 sequence (P0DMS8 whole entry): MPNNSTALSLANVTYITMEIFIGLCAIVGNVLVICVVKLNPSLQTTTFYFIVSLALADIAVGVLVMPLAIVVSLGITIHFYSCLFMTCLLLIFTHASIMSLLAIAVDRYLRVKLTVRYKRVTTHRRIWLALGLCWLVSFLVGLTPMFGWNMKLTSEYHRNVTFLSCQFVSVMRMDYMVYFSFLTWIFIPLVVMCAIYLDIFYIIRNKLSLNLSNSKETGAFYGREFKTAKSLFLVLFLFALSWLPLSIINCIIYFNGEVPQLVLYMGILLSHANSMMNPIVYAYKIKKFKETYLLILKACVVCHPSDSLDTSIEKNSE
The experiment in a line: biochemical.
As usually defined, the Ki is the dissociation constant of the complex between target and ligand, obtained from inhibition or displacement. `O[C@@H]1[C@H](O)[C@@H]2C[C@@H]2[C@H]1n1cnc2c(NCCc3cccc(F)c3)nc(C#Cc3ccccc3)nc21` displayed a Ki of 35.9 nM.
`O[C@@H]1[C@H](O)[C@@H]2C[C@@H]2[C@H]1n1cnc2c(NCCc3cccc(F)c3)nc(C#Cc3ccc(F)s3)nc21` showed a Ki of 55.8 nM.
Same read-out and setting: with `COc1cc(CCNc2nc(C#Cc3ccc(F)c(F)c3)nc3c2ncn3[C@H]2[C@H](O)[C@H](O)[C@@H]3C[C@@H]32)ccc1O` the figure was 12.8 nM; with `COc1cc(CCNc2nc(C#Cc3ccc(Cl)s3)nc3c2ncn3[C@H]2[C@H](O)[C@H](O)[C@@H]3C[C@@H]32)ccc1O`, 9.52 nM; with `COc1ccc(CCNc2nc(C#Cc3ccccc3)nc3c2ncn3[C@H]2[C@H](O)[C@H](O)[C@@H]3C[C@@H]32)cc1OC`, 16.3 nM.
Same read-out and setting: for `COc1cc(CCNc2nc(C#Cc3cccc(F)c3)nc3c2ncn3[C@H]2[C@H](O)[C@H](O)[C@@H]3C[C@@H]32)ccc1O` the value was 4.63 nM.
The molecule `O[C@@H]1[C@H](O)[C@@H]2C[C@@H]2[C@H]1n1cnc2c(NCCc3ccc(F)c(F)c3)nc(C#Cc3ccc(Cl)s3)nc21` registered a Ki of 47.1 nM.
As to `COc1cc(CCNc2nc(I)nc3c2ncn3[C@H]2[C@H](O)[C@H](O)[C@@H]3C[C@@H]32)ccc1O`, the Ki came out at 9.1 nM.
Still for that read-out and setting: for `Oc1ccc(CCNc2nc(C#Cc3ccccc3)nc3c2ncn3[C@H]2[C@H](O)[C@H](O)[C@@H]3C[C@@H]32)cc1F` the value was 9.03 nM.
On the same count and under the same terms, for `Nc1ccc(CCNc2nc(C#Cc3ccccc3)nc3c2ncn3[C@H]2[C@H](O)[C@H](O)[C@@H]3C[C@@H]32)cc1` the value was 14.2 nM.

The next experiment has as its target T4, Adenosine receptor A3 (Mus musculus, UniProt Q61618).
T4 sequence (Q61618 whole entry): T2 sequence (whole entry)
The experiment in a line: biochemical.
With `O[C@@H]1[C@H](O)[C@@H]2C[C@@H]2[C@H]1n1cnc2c(NCCc3ccccc3)nc(C#Cc3ccccc3Cl)nc21`, the affinity corresponds to a Ki of 980 nM.
The same measure, in the same setting: for `O[C@@H]1[C@H](O)[C@@H]2C[C@@H]2[C@H]1n1cnc2c(NCCc3cccc(F)c3)nc(C#Cc3ccccc3)nc21` the value was 264 nM; for `O[C@@H]1[C@H](O)[C@@H]2C[C@@H]2[C@H]1n1cnc2c(NCCc3cccc(F)c3)nc(C#Cc3ccc(F)s3)nc21`, 404 nM; for `COc1cc(CCNc2nc(C#Cc3ccc(F)c(F)c3)nc3c2ncn3[C@H]2[C@H](O)[C@H](O)[C@@H]3C[C@@H]32)ccc1O`, 75 nM.
Still for that read-out and setting: for `COc1cc(CCNc2nc(C#Cc3ccc(Cl)s3)nc3c2ncn3[C@H]2[C@H](O)[C@H](O)[C@@H]3C[C@@H]32)ccc1O` the value was 74.7 nM; for `COc1ccc(CCNc2nc(C#Cc3ccccc3)nc3c2ncn3[C@H]2[C@H](O)[C@H](O)[C@@H]3C[C@@H]32)cc1OC`, 331 nM; for `COc1cc(CCNc2nc(C#Cc3cccc(F)c3)nc3c2ncn3[C@H]2[C@H](O)[C@H](O)[C@@H]3C[C@@H]32)ccc1O`, 72.2 nM.
Still for that read-out and setting: for `O[C@@H]1[C@H](O)[C@@H]2C[C@@H]2[C@H]1n1cnc2c(NCCc3ccc(F)c(F)c3)nc(C#Cc3ccc(Cl)s3)nc21` the value was 2520 nM; for `COc1cc(CCNc2nc(I)nc3c2ncn3[C@H]2[C@H](O)[C@H](O)[C@@H]3C[C@@H]32)ccc1O`, 92.5 nM; for `Oc1ccc(CCNc2nc(C#Cc3ccccc3)nc3c2ncn3[C@H]2[C@H](O)[C@H](O)[C@@H]3C[C@@H]32)cc1F`, 61.6 nM.
Take `Nc1ccc(CCNc2nc(C#Cc3ccccc3)nc3c2ncn3[C@H]2[C@H](O)[C@H](O)[C@@H]3C[C@@H]32)cc1`: the inhibitory constant (Ki) came out at 60.4 nM.

In the next experiment the target is T5, Adenosine receptor A1 (Homo sapiens, UniProt P30542).
T5 sequence (P30542 whole entry): T1 sequence (whole entry)
The experiment in a line: Displacement of [3H]R-PIA from recombinant human A1AR expressed in HEK293 cell membranes measured after 60 mins by liquid scintillation counting method.
With `O[C@@H]1[C@H](O)[C@@H]2C[C@@H]2[C@H]1n1cnc2c(NCCc3cccc(F)c3)nc(C#Cc3ccccc3)nc21`, the inhibition constant (Ki) came out at 2680 nM.
For the molecule `O[C@@H]1[C@H](O)[C@@H]2C[C@@H]2[C@H]1n1cnc2c(NCCc3cccc(F)c3)nc(C#Cc3ccc(F)s3)nc21`, the Ki was found to be 2290 nM.
On the same count and under the same terms, for `COc1cc(CCNc2nc(C#Cc3ccc(F)c(F)c3)nc3c2ncn3[C@H]2[C@H](O)[C@H](O)[C@@H]3C[C@@H]32)ccc1O` the value was 341 nM; for `COc1cc(CCNc2nc(C#Cc3ccc(Cl)s3)nc3c2ncn3[C@H]2[C@H](O)[C@H](O)[C@@H]3C[C@@H]32)ccc1O`, 649 nM.
Still for that read-out and setting: for `COc1ccc(CCNc2nc(C#Cc3ccccc3)nc3c2ncn3[C@H]2[C@H](O)[C@H](O)[C@@H]3C[C@@H]32)cc1OC` the value was 208 nM.
